Reference: US11013715B2, “Nanoemulsion hydrophobic substances” (Vertosa, Inc., priority 2018, dated 2021)
Read-outs that look alike come from different tables or passages of the source.

Key:
[1] = cited from earlier work
[2] = Emulsion droplet average size by Dynamic Light Scattering; assay type: physicochemical; conditions: named Span as co-surfactant; 1 g cannabinoid, 0.625 g olive oil, 3.75 g Tween 80, Span:Tween 80 1:6; 45 mL; 80% amplitude sonication until plateau; DLS
Procedure: Droplet size change was monitored by DLS time wise.
Sometimes, measuring concentrated nano-emulsion (>10 mg/g) by Dynamic Light Scattering could have misleading data. Since at higher concentration, the emulsion droplets pack close to each other and may generate unreal scattering pattern. […] While the nanosized droplets are a preferred embodiment of the instant application, larger sized droplets are contemplated as well. Sometimes, larger size emulsion is generated by design to achieve desirable effects.
As is generally known in the art, droplet sizes and their distribution may affect the human feeling on flavor. On one side, nano-size can amplify or even alter the taste, something tastes plain at bulk may taste bitter or sour in nano-scale. On the other side, taste buds on tongue tend to have different time reactions to different sizes of particles. The smaller droplets can quickly absorb at the gap of the tasting buds, thus blocking the touching/feeling from bigger droplets. The droplet size can be well controlled by how much energy is put into the liquid system, which can be controlled either by amplitude % of the sonicator or by how long the liquid is being sonicated at certain amplitude %.
The sonicator continuously calibrates itself to ensure consistent output. A commercially available sonicator may be used to make the compositions disclosed herein. The wattage of such a sonicator may vary from 250 W to about 800 W, and more preferably between about 350 W to about 650 W, and most preferably between 450 W to about 550 W. The output energy depends on the viscosity of the emulsion and also temperature. […] Processing amplitude are adjustable, and it is within a linear relation with intensity. And process time can also be adjustable, which will determine total input energy under certain intensity. Since each formula may need different amount of energy to get into nanosize, we usually monitor droplet size change with Dynamic Light Scattering over production time to determine when to stop the sonication.
1 g of cannabis and 5 g of the Formula 1 are added to a 100 ml beaker, and mechanically stirred under controlled heat (<60° C.), until it is well mixed. The cannabis oil may be a full plant extract or a high pure distillate. Water is added to the mixture, the amount of water is determined by the final targeting concentration. The mixture is kept stirring until a homogenous milky coarse emulsion is formed.

[3] = Table 1, HLB=20*Mh/M, scale 0 to 20
[4] = Span surfactants, Example 9 table

## Polyglyceryl-6 Stearate
[1]; [3]
  HLB: 9

## Span 20
[2]
  Final Emulsion droplet average size (nm): 91 nm

## Span 40
[1]; [4]
  HLB: 6.7
[2]
  Final Emulsion droplet average size (nm): 245 nm

## Span 60
[1]; [4]
  HLB: 4.7
[2]
  Final Emulsion droplet average size (nm): 316 nm

## Span 80
[1]; [4]
  HLB: 4.3
[2]
  Final Emulsion droplet average size (nm): 387 nm

## Span 83
[2]
  Final Emulsion droplet average size (nm): 560 nm

## Span 85
[2]
  Final Emulsion droplet average size (nm): 876 nm

## Span 120
[1]; [4]
  HLB: 4.7
[2]
  Final Emulsion droplet average size (nm): 302 nm

## Tween 81
[1]; [3]
  HLB: 10

## polyglyceryl-6 oleate
[1]; [3]
  HLB: 9
